# Results taken from ChEMBL document CHEMBL3885881, “DrugMatrix”.
# Organism: Rattus norvegicus
# Assay: DrugMatrix - Regimen: Daily Repeat
# Assay type: toxicity, organism-based, Sprague-Dawley
# Design: regimen Daily Repeat, gender Male, age 6-8 weeks
# Settings: in vivo, po, route oral GAVAGE, vehicle 100 % WATER; for ABSOLUTE BASOPHIL / ABSOLUTE EOSINOPHIL / ABSOLUTE LYMPHOCYTE / ABSOLUTE MONOCYTE / ABSOLUTE SEGMENTED NEUTROPHIL / BASOPHIL / EOSINOPHIL / ERYTHROCYTE COUNT / HEMATOCRIT / HEMOGLOBIN / LEUKOCYTE COUNT / LYMPHOCYTE / MEAN CORPUSCULAR HEMOGLOBIN / MEAN CORPUSCULAR HEMOGLOBIN CONCENTRATION / MEAN CORPUSCULAR VOLUME / MONOCYTE / NEUTROPHIL / NUCLEATED RED BLOOD CELLS / PLATELET COUNT: tissue Blood; for ALANINE AMINOTRANSFERASE / ALBUMIN / ALKALINE PHOSPHATASE / ASPARTATE AMINOTRANSFERASE / BLOOD UREA NITROGEN / CARBON DIOXIDE / CHLORIDE / CHOLESTEROL / CREATINE PHOSPHOKINASE / CREATININE / GLUCOSE / LACTATE DEHYDROGENASE / LIPASE / PHOSPHORUS / POTASSIUM / SODIUM / TOTAL BILIRUBIN / TOTAL PROTEIN / URIC ACID: tissue Plasma
# [1] = 60 mg/kg, 72 h, dose level Low, time 3 day
# [2] = 60 mg/kg, 120 h, dose level Low, time 5 day
# [3] = 600 mg/kg, 72 h, dose level High, time 3 day
# [4] = 600 mg/kg, 120 h, dose level High, time 5 day
smiles,measurement,setting,value
"C=C(Cl)Cl [1,1-DICHLOROETHENE]",ABSOLUTE BASOPHIL,[1],0 CELLS/uL
same,ABSOLUTE EOSINOPHIL,[1],51.33 CELLS/uL
same,ABSOLUTE LYMPHOCYTE,[1],13010.33 CELLS/uL
same,ABSOLUTE MONOCYTE,[1],288.67 CELLS/uL
same,ABSOLUTE SEGMENTED NEUTROPHIL,[1],1149.67 CELLS/uL
same,BASOPHIL,[1],0%
same,EOSINOPHIL,[1],0.33%
same,ERYTHROCYTE COUNT,[1],5.5 x10E6/uL
same,HEMATOCRIT,[1],34%
same,HEMOGLOBIN,[1],13.53 G/DL
same,LEUKOCYTE COUNT,[1],14.5 x10E3/uL
same,LYMPHOCYTE,[1],89.67%
same,MEAN CORPUSCULAR HEMOGLOBIN,[1],24.63 pg
same,MEAN CORPUSCULAR HEMOGLOBIN CONCENTRATION,[1],39.83 G/DL
same,MEAN CORPUSCULAR VOLUME,[1],61.83 fL
same,MONOCYTE,[1],2%
same,NEUTROPHIL,[1],8%
same,NUCLEATED RED BLOOD CELLS,[1],0.33 /100WBC
same,PLATELET COUNT,[1],1358.33 x10E3/uL
same,ALANINE AMINOTRANSFERASE,[1],52 u/L
same,ALBUMIN,[1],4.13 G/DL
same,ALKALINE PHOSPHATASE,[1],441.67 u/L
same,ASPARTATE AMINOTRANSFERASE,[1],84.67 u/L
same,BLOOD UREA NITROGEN,[1],15 mg/dL
same,CARBON DIOXIDE,[1],24.33 mmol/L
same,CHLORIDE,[1],102 MEQ/L
same,CHOLESTEROL,[1],73.33 mg/dL
same,CREATINE PHOSPHOKINASE,[1],314 u/L
same,CREATININE,[1],0.14 mg/dL
same,GLUCOSE,[1],162 mg/dL
same,LACTATE DEHYDROGENASE,[1],291.33 u/L
same,LIPASE,[1],9 u/L
same,PHOSPHORUS,[1],13 mg/dL
same,POTASSIUM,[1],6.27 MEQ/L
same,SODIUM,[1],144.17 MEQ/L
same,TOTAL BILIRUBIN,[1],0.13 mg/dL
same,TOTAL PROTEIN,[1],5.77 G/DL
same,URIC ACID,[1],1.43 mg/dL
same,ABSOLUTE BASOPHIL,[2],0 CELLS/uL
same,ABSOLUTE EOSINOPHIL,[2],128.33 CELLS/uL
same,ABSOLUTE LYMPHOCYTE,[2],16922 CELLS/uL
same,ABSOLUTE MONOCYTE,[2],76.33 CELLS/uL
same,ABSOLUTE SEGMENTED NEUTROPHIL,[2],1473.33 CELLS/uL
same,BASOPHIL,[2],0%
same,EOSINOPHIL,[2],0.67%
same,ERYTHROCYTE COUNT,[2],5.28 x10E6/uL
same,HEMATOCRIT,[2],33.8%
same,HEMOGLOBIN,[2],13.87 G/DL
same,LEUKOCYTE COUNT,[2],18.6 x10E3/uL
same,LYMPHOCYTE,[2],91.33%
same,MEAN CORPUSCULAR HEMOGLOBIN,[2],26.23 pg
same,MEAN CORPUSCULAR HEMOGLOBIN CONCENTRATION,[2],41.07 G/DL
same,MEAN CORPUSCULAR VOLUME,[2],63.9 fL
same,MONOCYTE,[2],0.33%
same,NEUTROPHIL,[2],7.67%
same,NUCLEATED RED BLOOD CELLS,[2],0 /100WBC
same,PLATELET COUNT,[2],1031 x10E3/uL
same,ALANINE AMINOTRANSFERASE,[2],56.67 u/L
same,ALBUMIN,[2],4.23 G/DL
same,ALKALINE PHOSPHATASE,[2],282 u/L
same,ASPARTATE AMINOTRANSFERASE,[2],78 u/L
same,BLOOD UREA NITROGEN,[2],16.67 mg/dL
same,CARBON DIOXIDE,[2],23.67 mmol/L
same,CHLORIDE,[2],103.67 MEQ/L
same,CHOLESTEROL,[2],71.67 mg/dL
same,CREATINE PHOSPHOKINASE,[2],168.67 u/L
same,CREATININE,[2],0.22 mg/dL
same,GLUCOSE,[2],147.33 mg/dL
same,LACTATE DEHYDROGENASE,[2],101.67 u/L
same,LIPASE,[2],9.33 u/L
same,PHOSPHORUS,[2],13.27 mg/dL
same,POTASSIUM,[2],6.62 MEQ/L
same,SODIUM,[2],147.33 MEQ/L
same,TOTAL BILIRUBIN,[2],0.2 mg/dL
same,TOTAL PROTEIN,[2],5.9 G/DL
same,URIC ACID,[2],1.67 mg/dL
same,ABSOLUTE BASOPHIL,[3],0 CELLS/uL
same,ABSOLUTE EOSINOPHIL,[3],0 CELLS/uL
same,ABSOLUTE LYMPHOCYTE,[3],19725 CELLS/uL
same,ABSOLUTE MONOCYTE,[3],397.33 CELLS/uL
same,ABSOLUTE SEGMENTED NEUTROPHIL,[3],2311 CELLS/uL
same,BASOPHIL,[3],0%
same,EOSINOPHIL,[3],0%
same,ERYTHROCYTE COUNT,[3],5.83 x10E6/uL
same,HEMATOCRIT,[3],37.37%
same,HEMOGLOBIN,[3],15.3 G/DL
same,LEUKOCYTE COUNT,[3],22.43 x10E3/uL
same,LYMPHOCYTE,[3],88.33%
same,MEAN CORPUSCULAR HEMOGLOBIN,[3],26.2 pg
same,MEAN CORPUSCULAR HEMOGLOBIN CONCENTRATION,[3],40.93 G/DL
same,MEAN CORPUSCULAR VOLUME,[3],64 fL
same,MONOCYTE,[3],2%
same,NEUTROPHIL,[3],9.67%
same,NUCLEATED RED BLOOD CELLS,[3],0.33 /100WBC
same,PLATELET COUNT,[3],1189.67 x10E3/uL
same,ALANINE AMINOTRANSFERASE,[3],61.33 u/L
same,ALBUMIN,[3],4.23 G/DL
same,ALKALINE PHOSPHATASE,[3],458.33 u/L
same,ASPARTATE AMINOTRANSFERASE,[3],80 u/L
same,BLOOD UREA NITROGEN,[3],11.33 mg/dL
same,CARBON DIOXIDE,[3],26 mmol/L
same,CHLORIDE,[3],103.67 MEQ/L
same,CHOLESTEROL,[3],79.67 mg/dL
same,CREATINE PHOSPHOKINASE,[3],213.67 u/L
same,CREATININE,[3],0.17 mg/dL
same,GLUCOSE,[3],159 mg/dL
same,LACTATE DEHYDROGENASE,[3],74.33 u/L
same,LIPASE,[3],9.67 u/L
same,PHOSPHORUS,[3],12.7 mg/dL
same,POTASSIUM,[3],6.59 MEQ/L
same,SODIUM,[3],144.9 MEQ/L
same,TOTAL BILIRUBIN,[3],0.2 mg/dL
same,TOTAL PROTEIN,[3],5.83 G/DL
same,URIC ACID,[3],1.9 mg/dL
same,ABSOLUTE BASOPHIL,[4],0 CELLS/uL
same,ABSOLUTE EOSINOPHIL,[4],0 CELLS/uL
same,ABSOLUTE LYMPHOCYTE,[4],18262.67 CELLS/uL
same,ABSOLUTE MONOCYTE,[4],288.67 CELLS/uL
same,ABSOLUTE SEGMENTED NEUTROPHIL,[4],2115.33 CELLS/uL
same,BASOPHIL,[4],0%
same,EOSINOPHIL,[4],0%
same,ERYTHROCYTE COUNT,[4],5.83 x10E6/uL
same,HEMATOCRIT,[4],36.67%
same,HEMOGLOBIN,[4],14.73 G/DL
same,LEUKOCYTE COUNT,[4],20.67 x10E3/uL
same,LYMPHOCYTE,[4],89%
same,MEAN CORPUSCULAR HEMOGLOBIN,[4],25.23 pg
same,MEAN CORPUSCULAR HEMOGLOBIN CONCENTRATION,[4],40.2 G/DL
same,MEAN CORPUSCULAR VOLUME,[4],62.87 fL
same,MONOCYTE,[4],1.33%
same,NEUTROPHIL,[4],9.67%
same,NUCLEATED RED BLOOD CELLS,[4],0.33 /100WBC
same,PLATELET COUNT,[4],1233.33 x10E3/uL
same,ALANINE AMINOTRANSFERASE,[4],48 u/L
same,ALBUMIN,[4],4.23 G/DL
same,ALKALINE PHOSPHATASE,[4],376.33 u/L
same,ASPARTATE AMINOTRANSFERASE,[4],81 u/L
same,BLOOD UREA NITROGEN,[4],14.67 mg/dL
same,CARBON DIOXIDE,[4],23.33 mmol/L
same,CHLORIDE,[4],102 MEQ/L
same,CHOLESTEROL,[4],75 mg/dL
same,CREATINE PHOSPHOKINASE,[4],337.67 u/L
same,CREATININE,[4],0.21 mg/dL
same,GLUCOSE,[4],150.33 mg/dL
same,LACTATE DEHYDROGENASE,[4],117.33 u/L
same,LIPASE,[4],10 u/L
same,PHOSPHORUS,[4],12.33 mg/dL
same,POTASSIUM,[4],7.1 MEQ/L
same,SODIUM,[4],144.9 MEQ/L
same,TOTAL BILIRUBIN,[4],0.2 mg/dL
same,TOTAL PROTEIN,[4],6.1 G/DL
same,URIC ACID,[4],1.77 mg/dL
